Tests used:
HSV-1 Strain F = experiment: Viral qPCR assay, HSV-1; assay type: cell-based, Herpes Simplex Virus type 1; conditions: Human alphaherpesvirus 1, 72 h, Vero or MRC5 cells, 0.0005-0.004 pfu/cell, growth medium, viral genome copies by qPCR, read-out: HSV1 Cell (EC50)
Experimental: (§1) MRC5 cells, Vero cells, and MeWo cells were obtained from ATCC, and were maintained at 37° C./5% CO2/90% relative humidity in Minimal Essential Medium with 10% fetal bovine serum, […] L-glutamine, 100 units/ml penicillin and 100 ug/ml streptomycin. Assay plates were prepared by dispensing compounds dissolved in DMSO into wells of 384 well collagen-coated plates using an ECHO acoustic dispenser. Each compound was tested in a 10-point, serial 3-fold dilution. Controls included uninfected cells and infected cells treated only with DMSO. Assays were initiated by mixing selected cells, in suspension, with virus, and dispensing 50 μl/well infected cells to pre-plated compounds. Plates were incubated at 37° C./5% CO2/90% relative humidity for ˜72 hrs to permit genomic replication, and infected cells were lysed by the addition of an equal volume of lysis buffer (10 mM Tris-HCl, pH8, 50 mM KCl, 2 mM MgCl2, 0.45% NP-40, 0.45% Tween-20, and 100 μg/ml proteinase K). An aliquot of the lysate was transferred to a 384-well PCR plate and incubated at 56° C. for 1 hour and then at 95° C. for 10 min. Levels of a viral gene and of the cellular control, PPIA (Thermo Fisher Assay ID=Hs04194521_s1), were measured in separate 10 ul qPCR assays using TaqMan® Gene Expression Master Mix (Applied Biosystems), and an 7900HT Fast Real-Time PCR System with 384-Well Block Module. 7-point, serial 10-fold dilutions of a plasmid standard were run on each plate to generate a standard curve, and genome copies numbers were calculated by plotting experimental Ct onto linear regression of the standard curve. Viral genome copy numbers were normalized by cellular control copy number, and compound effects were normalized to the window defined by the controls. Calculated % effects were fit using a 4-parameter algorithm, and EC50 was reported.
(§2) MRC5 cells, Vero cells, and MeWo cells were obtained from ATCC, and were maintained at 37° C./5% CO2/90% relative humidity in Minimal Essential Medium with 10% fetal bovine serum, […] L-glutamine, 100 units/ml penicillin and 100 ug/ml streptomycin. Assay plates were prepared by dispensing compounds dissolved in DMSO into wells of 384 well collagen-coated plates using an ECHO acoustic dispenser. Each compound was tested in a 10-point, serial 3-fold dilution. Controls included uninfected cells and infected cells treated only with DMSO. Assays were initiated by mixing selected cells, in suspension, with virus, and dispensing 50 μl/well infected cells to pre-plated compounds. Plates were incubated at 37° C./5% CO2/90% relative humidity for ˜72 hrs to permit genomic replication, and infected cells were lysed by the addition of an equal volume of lysis buffer (10 mM Tris-HCl, pH 8, 50 mM KCl, 2 mM MgC12, 0.45% NP-40, 0.45% Tween-20, and 100 μg/ml proteinase K). An aliquot of the lysate was transferred to a 384-well PCR plate and incubated at 56° C. for 1 hour and then at 95° C. for 10 min. Levels of a viral gene were measured in 10 ul qPCR assays using TaqMan® Gene Expression Master Mix (Applied Biosystems), and an 7900HT Fast Real-Time PCR System with 384-Well Block Module. 7-point, serial 10-fold dilutions of a plasmid standard were run on each plate to generate a standard curve, and genome copies numbers were calculated by plotting experimental Ct onto linear regression of the standard curve. Compound effects on viral genome copy number were normalized to the window defined by the controls. Calculated % effects were fit using a 4-parameter algorithm, and ECso was reported.
HSV-1: Strain F […] was assayed in Vero or MRC5 cells and was used at 0.0005-0.004 pfu/cell in growth medium. Primer-probe set was Thermo Fisher Assay ID=AIBJZIB

[1] = biological target: T1, Human cytomegalovirus DNA polymerase (Human cytomegalovirus, UniProt P08546); experiment: CMV polymerase assay (AlphaLISA); assay type: biochemical; conditions: HCMV polymerase 0.2 nM; 30 min pre-incubation; 60 min at 37° C.; read-out: CMV (IC50)
T1 construct: made in house; host or cells: SF21 insect cells (baculovirus vector)
Experimental: Human cytomegalovirus and varicella zoster virus DNA polymerases were expressed via baculovirus vector in SF21 cells and purified. Heterodimeric nucleic acid substrate used in the herpesvirus polymerase reactions was generated by annealing a 59-mer template to a 17-mer digoxigenin-labeled primer. Polymerase (HCMV final concentration of 0.2 nM; VZV final concentration of 0.4 nM) was combined with an inhibitor compound or DMSO in assay buffer (10 mM HEPES, pH 7.5, 25 mM KCl, 25 mM NaCl, 5 mM MgCl2, 5% glycerol, 0.67 mg/ml bovine serum albumin, and 1 mM tris(2-carboxyethyl)phosphine), and this mixture was pre-incubated for 30 minutes at room temperature in 384-well microtiter plates. The polymerization reaction was initiated by the addition of template/primer substrate (final concentration: 1.6 nM), and dNTPs (final concentration: 24 nM dCTP, 24 nMdGTP, 16 nM dATP, 16 nM dTTP, and 0.8 nM biotin-dUTP). After 60 min incubation at 37° C., reactions were terminated with quench buffer (25 mM HEPES pH 7.5, 100 mM NaCl, 0.25% Tween-20, 12 mM EDTA, and 1 mg/ml bovine serum albumin). Incorporation of biotinylated UTP was detected with 2.5-5 ug/ml anti-DIG AlphaLISA acceptor beads and 5-10 ug/ml streptavidin AlphaLISA donor beads (PerkinElmer). Compound effects were normalized to the window defined by the controls (DMSO only and pre-quenched wells) and were fit using a 4-parameter algorithm to report an IC50.

HCMV Strain AD169 = experiment: Viral qPCR assay, HCMV; assay type: cell-based, Human cytomegalovirus; conditions: Human betaherpesvirus 5, AD169, MRC5, 72 h, MRC-5 cells, 0.05-0.1 pfu/cell, growth media or 50% fetal bovine serum, viral genome copies by qPCR, read-out: CMV Cell (EC50)
Experimental: as §1, §2
HCMV: Strain AD169 Street was assayed in MRC-5 cells and was used at 0.05-0.1 pfu/cell. The assays were performed in either growth media or in the same media with 50% fetal bovine serum. Primer-probe set was Thermo Fisher Assay ID=AIFATFK.

VZV = experiment: Viral qPCR assay, VZV; assay type: cell-based, varicella zoster virus; conditions: Human alphaherpesvirus 3, 72 h, MeWo or MRC5 cells, 0.04-0.1 pfu/cell, growth medium, viral genome copies by qPCR
Experimental: as §1, §2
VZV: Strain Street was maintained as an infected cell stock in MRC-5 cells. It was assayed in MeWo or MRC5 cells and was used at 0.04-0.1 pfu/cell. The assays were performed in growth medium. Primer-probe set was Thermo Fisher Assay ID=AIPAEXQ.

T1 sequence (P08546 whole entry): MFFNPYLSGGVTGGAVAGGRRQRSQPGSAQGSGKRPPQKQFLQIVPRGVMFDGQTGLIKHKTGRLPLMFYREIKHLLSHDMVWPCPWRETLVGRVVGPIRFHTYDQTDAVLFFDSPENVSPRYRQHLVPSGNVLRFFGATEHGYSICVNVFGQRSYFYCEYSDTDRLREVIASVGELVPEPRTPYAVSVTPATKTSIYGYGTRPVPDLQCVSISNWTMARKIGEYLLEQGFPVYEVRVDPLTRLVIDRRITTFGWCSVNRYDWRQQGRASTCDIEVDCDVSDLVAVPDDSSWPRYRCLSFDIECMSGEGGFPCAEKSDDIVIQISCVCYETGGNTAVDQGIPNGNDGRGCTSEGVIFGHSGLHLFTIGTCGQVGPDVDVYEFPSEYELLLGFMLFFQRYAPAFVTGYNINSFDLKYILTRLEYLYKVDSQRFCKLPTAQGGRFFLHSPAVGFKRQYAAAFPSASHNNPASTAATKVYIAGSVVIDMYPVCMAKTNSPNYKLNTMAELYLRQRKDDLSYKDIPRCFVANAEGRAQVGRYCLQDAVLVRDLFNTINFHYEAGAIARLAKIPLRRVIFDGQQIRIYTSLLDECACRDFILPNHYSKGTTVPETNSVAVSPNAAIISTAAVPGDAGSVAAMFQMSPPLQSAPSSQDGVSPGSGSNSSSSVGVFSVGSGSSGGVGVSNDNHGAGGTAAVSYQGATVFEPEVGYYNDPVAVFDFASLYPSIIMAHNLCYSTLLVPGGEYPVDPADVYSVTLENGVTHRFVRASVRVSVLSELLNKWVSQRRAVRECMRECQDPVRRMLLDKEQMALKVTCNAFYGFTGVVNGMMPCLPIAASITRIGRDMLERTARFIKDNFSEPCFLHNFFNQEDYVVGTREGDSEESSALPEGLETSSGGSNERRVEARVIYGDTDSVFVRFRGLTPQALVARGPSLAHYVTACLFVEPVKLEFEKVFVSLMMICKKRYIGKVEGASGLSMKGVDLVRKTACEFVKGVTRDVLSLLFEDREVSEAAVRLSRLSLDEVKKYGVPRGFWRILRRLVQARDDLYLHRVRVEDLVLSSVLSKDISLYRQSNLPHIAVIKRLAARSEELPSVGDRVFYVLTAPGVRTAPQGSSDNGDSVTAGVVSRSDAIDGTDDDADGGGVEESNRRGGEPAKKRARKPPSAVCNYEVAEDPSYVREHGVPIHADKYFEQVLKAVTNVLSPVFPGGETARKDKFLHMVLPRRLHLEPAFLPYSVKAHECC

Compound | EC50 (HSV-1 Strain F) | IC50 [1] | EC50 (HCMV Strain AD169) | EC50 (VZV)
COc1nc(-c2ccsc2)c(O[C@H]2CCN3C(=O)OC[C@@H]3C2)cc1C(=O)NCc1ccc(Cl)cc1 [Compound 21] | 377 nM | 20.9 nM | 500 nM | 417 nM
COc1nc(-c2occc2C=O)c(O[C@H]2CCN3C(=O)OC[C@@H]3C2)cc1C(=O)NCc1ccc(Cl)cc1 [Compound 23] | 87.4 nM | 18 nM | 140 nM | 117 nM
COCCn1cc(-c2nc(OC)c(C(=O)NCc3ccc(Cl)cc3)cc2O[C@H]2CCN3C(=O)OC[C@@H]3C2)cn1 [Compound 25] | 146 nM | 6.77 nM | 159 nM | 186 nM
COc1ccc(-c2nc(OC)c(C(=O)NCc3ccc(Cl)cc3)cc2O[C@H]2CCN3C(=O)OC[C@@H]3C2)nc1 [Compound 35] |  | 79.5 nM | 1940 nM | 
COc1nc(-c2cc(C(F)(F)F)nn2C)c(O[C@H]2CCN3C(=O)OC[C@@H]3C2)cc1C(=O)NCc1ccc(Cl)cc1 [Compound 48] |  | 193 nM | 2010 nM | 
COc1nc(-c2cccc3cc[nH]c23)c(O[C@H]2CCN3C(=O)OC[C@@H]3C2)cc1C(=O)NCc1ccc(Cl)cc1 [Compound 49] |  | 131 nM | 2740 nM | 
COc1nc(-c2ccc3cc[nH]c3c2)c(O[C@H]2CCN3C(=O)OC[C@@H]3C2)cc1C(=O)NCc1ccc(Cl)cc1 [Compound 50] |  | 80.7 nM | 2760 nM | 
COc1nc(-c2ccnc3[nH]ccc23)c(O[C@H]2CCN3C(=O)OC[C@@H]3C2)cc1C(=O)NCc1ccc(Cl)cc1 [Compound 51] |  | 133 nM | 3340 nM | 
COc1nc(-c2ccccn2)c(O[C@H]2CCN3C(=O)OC[C@@H]3C2)cc1C(=O)NCc1ccc(Cl)cc1 [Compound 52] |  | 120 nM | 3480 nM | 
COc1nccc(-c2nc(OC)c(C(=O)NCc3ccc(Cl)cc3)cc2O[C@H]2CCN3C(=O)OC[C@@H]3C2)n1 [Compound 53] |  | 164 nM | 3990 nM | 
COc1nc(-c2cc3cccc(OC)c3[nH]2)c(O[C@H]2CCN3C(=O)OC[C@@H]3C2)cc1C(=O)NCc1ccc(Cl)cc1 [Compound 54] |  | 23.7 nM | 5260 nM | 
COc1nc(N2CC3(C(C)(C)O)CC2C3)c(O[C@H]2CCN3C(=O)OC[C@@H]3C2)cc1C(=O)NCc1ccc(Cl)cc1 [Compound 69] |  | 53.9 nM | 1480 nM | 
